Experimental data: US8637521B2, “Substituted piperazin-2,5-diones and their use as multifunctional bioactive compounds” (priority 2006, dated 2014)
Where two headings read alike, the source gives them in different places. Square brackets hold non-standard residues; d marks the D form. Peptide text beside a SMILES is read from it. * marks the point of attachment. X1 = O=C(O)CC[C@@H]1NC(=O)[C@H](CCCCN*)NC1=O

Key:
[1] = target: μ-receptor (isolated guinea pig ileum, GPI) (Cavia porcellus, UniProt P97266); test: Peripheral opioid activity: inhibition of electrically-induced contractions of isolated guinea pig ileum (GPI); conditions: for Value of pD2 (M ± m): negative logarithm of EC50; for EC50: concentration reducing contraction amplitude by 50%, 5 replications
Sequence of μ-receptor (isolated guinea pig ileum, GPI) (P97266 whole entry): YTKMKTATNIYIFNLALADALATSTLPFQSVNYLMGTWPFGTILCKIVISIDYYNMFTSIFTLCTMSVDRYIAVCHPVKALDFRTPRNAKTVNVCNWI
Protocol: The segment of GPI about 1 cm long was placed into a 10-ml organ bath containing Krebs solution at 34° C. […] Resting tension of the organ was 1 g. The segment of GPI was stimulated by single pulses duration 1 ms with 0.1 Hz at 80 V. The solution with isolated organs was constantly aerated. The contractions were recorded in an isometrical mode by a sensor K 30 (Hugo Sachs Elektronic KG) with paper register Rikadenki-series (Japan).
The substances tested were dissolved in distilled water and added cumulatively to the organ bath at a volume of 5 to 30 mcl. Each subsequent substance was added after the isolated organs were washed 3 or 4 times for 12-15 min. On the basis of the data obtained, dose-effects curves were plotted and the activity of substances was expressed by IC50 or pD2. The pD2 index was equal to a negative decimal logarithm of the substance concentration causing a 50% of the maximal effect.
New dermorphin analogues were tested in the standard model of Guinea pig ileum binding test.
For confirmation of opioid activity, the specific antagonist naloxson was used in concentration of 10^−5M. Each molecule was tested in 5 independent replications and relative activity was calculated as negative logarithm of EC50 (pD2).

BALB/c male mice = test: Antinociceptive activity, tail flick test with heat radiation, intragastral or intraperitoneal; type: in vivo; conditions: for Effect duration: 15 min, cut-off 6 sec
Protocol: For estimation of oral activity of novel cyclopeptides of the present invention, the “tail flick” test was used. The results were compared with those obtained using intraperitoneal administration.
Antinociceptive activity of the peptides of the present invention was assessed in experiments on BALB/c male mice weighing 22 to 24 g. The peptides were dissolved in saline and administered intraperitoneally or intragastrally.
The “Tail flick” test (D'Amour, F. E. et al. “A Method for Determining Loss of Pain Sensation”, J. Pharmacol. Exp. Ther., Vol. 72, Pages 74 to 79, 1941) was performed on an analgesimeter type 812, Hugo Sachs Electronick KG. Antinociceptive activity was defined as the absence of tail flick response on stimulation with a focused bundle of heat radiation with 6 sec at baseline response of 2.0-3.0 seconds.
Statistical treatment of the results was carried out by the Student's paired t-test.

mice F1(CBAxC57D16) = test: Analgesic activity, tail flick test, water 48° C., intraperitoneal; type: in vivo; conditions: Table 10; for Initial sensitivity level: before injection
Protocol: Two hundred and twenty mice F1(CBAxC57D16) first generation hybrids were used for testing of analgesic activity using the “tail flick” test. The water temperature was at 48° C. The maximal effect was for the period of 30 seconds. All peptides were injected intraperitoneally in the doses of 5, 10 or 20 mg/kg. Analgesic effect was estimated in the time interval of 15 to 120 min after peptide injection. Student's t-criterion was used for statistical calculations of the results. Statistical significance were at the level of p≦0.05.

[2] = Table 11, oral 50 mg/kg group, before administration
[3] = Table 12, intraperitoneal 10 mg/kg group, before injection
[4] = Table 12, intraperitoneal 10 mg/kg

C[C@@H](NC(=O)[C@@H](N)Cc1ccc(O)cc1)C(=O)N[C@@H](Cc1ccccc1)C(=O)NCC(=O)N[C@@H](Cc1ccc(O)cc1)C(=O)N1CCC[C@H]1C(=O)N[C@@H](CO)C(N)=O [Compound 48, H-Tyr-D-Ala-Phe-Gly-Tyr-Pro-Ser-NH2]
Value of pD2 (M ± m) [1]: 8.56 ± 0.12
EC50 ([1]; read-out: Median EC50 in M): 0.0025 µM

CC(C)C[C@H](NC(=O)[C@H](Cc1ccccc1)NC(=O)CNC(=O)[C@@H](C)NC(=O)[C@@H](N)Cc1ccc(O)cc1)C(=O)N[C@@H](CCCNC(=N)N)C(=O)O [Compound 56, H-Tyr-D-Ala-Gly-Phe-Leu-Arg-OH] (H-Y[dA]GFLR-OH)
Value of pD2 (M ± m) [1]: 7.53 ± 0.22
EC50 ([1]; read-out: Median EC50 in M): 0.05 µM

C[C@@H](NC(=O)[C@H](Cc1ccccc1)NC(=O)[C@@H](C)NC(=O)[C@@H](N)Cc1ccc(O)cc1)C(=O)N[C@@H](Cc1ccc(O)cc1)C(=O)N1CCC[C@H]1C(=O)N[C@@H](CO)C(N)=O [Compound 49, H-Tyr-D-Ala-Phe-D-Ala-Tyr-Pro-Ser-NH2] (H-Y[dA]F[dA]YPS-NH2)
Value of pD2 (M ± m) [1]: 7.55 ± 0.11
EC50 ([1]; read-out: Median EC50 in M): 0.03 µM

C[C@@H](NC(=O)[C@H](Cc1ccccc1)NC(=O)[C@@H](C)NC(=O)[C@@H](N)Cc1ccc(O)cc1)C(=O)N[C@@H](Cc1ccc(O)cc1)C(=O)N1CCC[C@H]1C(=O)N[C@@H](CO)C(=O)NCCCC[C@@H]1NC(=O)[C@H](CCC(=O)N[C@@H](Cc2c[nH]c3ccccc23)C(=O)O)NC1=O [Compound 47, Cyclo-[L-Lys(H-Tyr-D-Ala-Phe-D-Ala-Tyr-Pro-Ser)-L-Glu(L-Trp-OH)]]
Value of pD2 (M ± m) [1]: 7.52 ± 0.07
EC50 ([1]; read-out: Median EC50 in M): 0.033 µM

C[C@@H](NC(=O)[C@H](Cc1ccc(O)cc1)NC(=O)[C@@H](N)CCCNC(=N)N)C(=O)N[C@@H](Cc1ccccc1)C(=O)NCC(=O)O [Compound 52, Arg-Tyr-D-Ala-Phe-Gly-OH] (H-RY[dA]FG-OH; N-terminus assumed)
EC50 ([1]; read-out: Median EC50): 3 µM
Value of pD2 (M ± m) [1]: 5.50 ± 0.07

Cyclo-[L-Lys(H-Tyr-D-Ala-Phe-D-Ala-Tyr-Pro-Ser)-L-Glu(L-Trp-OH)]
Initial sensitivity level, mean (BALB/c male mice; [2]): 2.2 ± 0.1 s
Initial sensitivity level, mean (BALB/c male mice; [3]): 2.1 ± 0.1 s
Effect duration (BALB/c male mice; [4]): 4.1 ± 0.4 s
Initial sensitivity level (mice F1(CBAxC57D16); 10 mg/kg group): 3.7 ± 0.2 s
Effect duration (mice F1(CBAxC57D16); 10 mg/kg i.p., 15 min): 6.8 ± 0.6 s
Effect duration (mice F1(CBAxC57D16); 10 mg/kg i.p., 30 min): 6.3 ± 0.7 s
Effect duration (mice F1(CBAxC57D16); 10 mg/kg i.p., 45 min): 8.4 ± 1.4 s
Effect duration (mice F1(CBAxC57D16); 10 mg/kg i.p., 60 min): 7.7 ± 1.7 s
Effect duration (mice F1(CBAxC57D16); 10 mg/kg i.p., 90 min): 6.7 ± 1.0 s
Effect duration (mice F1(CBAxC57D16); 10 mg/kg i.p., 120 min): 4.6 ± 0.3 s
Initial sensitivity level (mice F1(CBAxC57D16); 20 mg/kg group): 3.4 ± 0.2 s
Effect duration (mice F1(CBAxC57D16); 20 mg/kg i.p., 15 min): 7.8 ± 0.5 s
Effect duration (mice F1(CBAxC57D16); 20 mg/kg i.p., 30 min): 8.3 ± 0.8 s
Effect duration (mice F1(CBAxC57D16); 20 mg/kg i.p., 45 min): 8.7 ± 1.2 s
Effect duration (mice F1(CBAxC57D16); 20 mg/kg i.p., 60 min): 9.5 ± 1.2 s
Effect duration (mice F1(CBAxC57D16); 20 mg/kg i.p., 90 min): 9.7 ± 1.3 s
Effect duration (mice F1(CBAxC57D16); 20 mg/kg i.p., 120 min): 8.2 ± 1.7 s

C[C@@H](NC(=O)[C@H](Cc1ccccc1)NC(=O)[C@@H](C)NC(=O)[C@@H](N)Cc1ccc(O)cc1)C(=O)N[C@@H](Cc1ccc(O)cc1)C(=O)N1CCC[C@H]1C(=O)N[C@@H](CO)C(=O)NCCCC[C@@H]1NC(=O)[C@H](CCC(=O)N[C@@H](Cc2c[nH]c3ccccc23)C(N)=O)NC1=O [Compound 46, Cyclo-[L-Lys(H-Tyr-D-Ala-Phe-D-Ala-Tyr-Pro-Ser)-L-Glu(L-Trp-NH2)]]
Value of pD2 (M ± m) [1]: 7.96 ± 0.02
EC50 ([1]; read-out: Median EC50 in M): 0.011 µM

C[C@@H](NC(=O)[C@H](Cc1ccccc1)NC(=O)[C@@H](C)NC(=O)[C@@H](N)Cc1ccc(O)cc1)C(=O)NCCCC[C@@H]1NC(=O)[C@H](CCC(=O)O)NC1=O [Compound 44, Cyclo-[L-Lys(H-Tyr-D-Ala-Phe-D-Ala)-L-Glu(OH)]] (H-Y[dA]F[dA]-X1)
Value of pD2 (M ± m) [1]: 6.15 ± 0.10
EC50 ([1]; read-out: Median EC50 in M): 0.57 µM

Cyclo-[L-Lys(H-Tyr-D-Ala-Phe-D-Ala-Tyr-Pro-Ser)-L-Glu(L-Trp-NH2)]
Initial sensitivity level, mean (BALB/c male mice; [2]): 2.7 ± 0.1 s
Initial sensitivity level, mean (BALB/c male mice; [3]): 2.1 ± 0.1 s
Effect duration (BALB/c male mice; [4]): 3.9 ± 0.8 s
Initial sensitivity level (mice F1(CBAxC57D16); 10 mg/kg group): 3.2 ± 0.3 s
Effect duration (mice F1(CBAxC57D16); 10 mg/kg i.p., 15 min): 11.6 ± 1.7 s
Effect duration (mice F1(CBAxC57D16); 10 mg/kg i.p., 30 min): 15.5 ± 1.6 s
Effect duration (mice F1(CBAxC57D16); 10 mg/kg i.p., 45 min): 15.7 ± 1.2 s
Effect duration (mice F1(CBAxC57D16); 10 mg/kg i.p., 60 min): 13.0 ± 1.5 s
Effect duration (mice F1(CBAxC57D16); 10 mg/kg i.p., 90 min): 9.9 ± 1.5 s
Effect duration (mice F1(CBAxC57D16); 10 mg/kg i.p., 120 min): 6.8 ± 0.5 s
Initial sensitivity level (mice F1(CBAxC57D16); 20 mg/kg group): 3.0 ± 0.2 s
Effect duration (mice F1(CBAxC57D16); 20 mg/kg i.p., 15 min): 1.4 ± 1.6 s
Effect duration (mice F1(CBAxC57D16); 20 mg/kg i.p., 30 min): 18.1 ± 2.3 s
Effect duration (mice F1(CBAxC57D16); 20 mg/kg i.p., 45 min): 16.8 ± 2.2 s
Effect duration (mice F1(CBAxC57D16); 20 mg/kg i.p., 60 min): 12.7 ± 1.8 s
Effect duration (mice F1(CBAxC57D16); 20 mg/kg i.p., 90 min): 11.7 ± 1.2 s
Effect duration (mice F1(CBAxC57D16); 20 mg/kg i.p., 120 min): 6.3 ± 0.6 s

COc1cccc(C2(O)CCCCC2CN(C)C)c1 (centres unmarked) [Tramadol]
Initial sensitivity level, mean (BALB/c male mice; [2]): 2.6 ± 0.1 s
Effect duration (BALB/c male mice; Table 11, oral 50 mg/kg): 2.6 ± 0.1 s

COC(=O)[C@H](Cc1c[nH]c2ccccc12)NC(=O)CC[C@@H]1NC(=O)[C@H](CCCCNC(=O)[C@@H](C)NC(=O)[C@H](Cc2ccccc2)NC(=O)[C@@H](C)NC(=O)[C@@H](N)Cc2ccc(O)cc2)NC1=O [Compound 45, Cyclo-[L-Lys(H-Tyr-D-Ala-Phe-D-Ala)-L-Glu(L-Trp-OMe)]]
Value of pD2 (M ± m) [1]: 5.68 ± 0.09
EC50 ([1]; read-out: Median EC50 in M): 2 µM

C[C@@H](NC(=O)[C@H](Cc1ccccc1)NC(=O)[C@@H](C)NC(=O)[C@H](Cc1ccc(O)cc1)NC(=O)[C@@H](N)CCCNC(=N)N)C(=O)O [Compound 53, H-Arg-Tyr-D-Ala-Phe-D-AlaOH] (H-RY[dA]F[dA]-OH)
Value of pD2 (M ± m) [1]: 6.06 ± 0.12
EC50 ([1]; read-out: Median EC50 in M): 1 µM
Initial sensitivity level, mean (BALB/c male mice; [3]): 2.4 ± 0.1 s
Effect duration (BALB/c male mice; [4]): 2.7 ± 0.1 s
